Data on one compound can be found in ChEMBL document CHEMBL2375211, “2-methoxyjuglone induces apoptosis in HepG2 human hepatocellular carcinoma cells and exhibits in vivo antitumor activity in a H22 mouse hepatocellular carcinoma model” (J Nat Prod, 2013).

Data set [1] concerns Mus musculus. Nature of the data set: Toxicity in Kunming mouse allografted with mouse H22 cells assessed as decrease in body weight at 20 mg/kg/day, ip measured every day for 8 days. In kind it is organism-based. Also noted: route intraperitoneal. The following applies: in vivo, 192 h.
For data set [2], the system named is H22. The data set is described as follows: Antitumor activity against mouse H22 cells allografted in Kunming mouse assessed as decrease in weight of tumor mass at 20 mg/kg/day, ip administered 8 days measured after 10 days relative to control. In kind it is functional. Also noted: scale not given: the % may be the effect or the level left. The following applies: route intraperitoneal.

Consider `O=c1[nH]cc(F)c(=O)[nH]1` [FLUOROURACIL], for which the Activity result is on record as “Toxic” in data set [1] and 81% in data set [2].
